Test results reported in patent US11649458B2, “Inhibiting angiotensinogen to attenuate aortic pathology in Marfan syndrome” (UNIVERSITY OF KENTUCKY RESEARCH FOUNDATION, priority 2020, dated 2023).

Tests used:
[1] = tested on: patients with Marfan syndrome; details: male less than 16 years old, female less than 15; losartan p=0.002, atenolol p<0.001; cited from earlier work
FBN1 mgR/mgR mice = test: Survival and ascending aortic diameter in FBN1 mgR/mgR mice with established aortic dilation infused with enalapril or losartan by osmotic mini pump; type: in vivo; details: for survival after 12 weeks versus PBS: mini pump from 6 weeks of age
Protocol: Male and female fibrillin-1 hypomorphic (FBN1 mgR/mgR) mice (n=10-12/group) were stratified into treatment groups by aortic diameter at 6 weeks of age to ensure an equivalent average aortic diameter in each group at the start of the study. Osmotic mini pumps filled with PBS (vehicle), enalapril (2 mg/kg/d), or losartan (20 mg/kg/d) were implanted subcutaneously into mice after stratification. Mini pumps infusing drug or vehicle were replaced every 4 weeks for a total duration of 12 weeks. Wild type littermates (n=10) were infused with PBS as a negative control to the Marfan mouse model. Ascending aortic diameters from male and female FBN1 mgR/mgR mice and their wild type littermates were assessed by ultrasound every 4 weeks from 6 to 18 weeks of age. Aortic diameters were measured luminal edge to luminal edge during diastole.

[2] = tested on: individuals with Marfan syndrome; details: cited from earlier work
[3] = tested on: patients with Marfan syndrome; details: median follow-up 8 years; control group 5; p=0.14; cited from earlier work
[4] = tested on: male FBN1^mgR/mgR (mgR) mice; test: Losartan withdrawal in male FBN1^mgR/mgR mice, death by aortic rupture; type: in vivo
From the text: Withdrawal of losartan during late adolescence (52 days of age) was followed by 6/10 mice dying by aortic rupture within 4 weeks (shaded area). (*=p<0.05. Censored data include humane endpoints and non-rupture events.)

Fbn1^mgR/mgR mice = test: Survival of Fbn1^mgR/mgR mice given losartan in drinking water starting at P24 or P50; type: in vivo; details: for survival compared to Fbn1^mgR/mgR mice receiving no drug, survival analysis starting at P50: p=0.017
From the text: Male (n=40) and female (n=28) Fbn1^mgR/mgR mice were randomized to receive losartan in drinking water (0.6 g/L) starting at either postnatal day 24 (P24) or 50 (P50). Data derived from these mice was compared to littermate Fbn1^mgR/mgR (20 males, 14 females) and wild type (15 males, 15 females) mice that were given vehicle only. All mice were terminated at 20 weeks of age. Mice that died during the study were necropsied to determine cause of death.

mouse models of TAA = details: cited from earlier work
[5] = female mgR mice, PBS=1.92+/-0.13, p=0.86, no significant difference
[6] = male mgR mice, PBS=2.69+/-0.19 mm, p=0.24, no significant difference

In the case of `CC(C)NCC(O)COc1ccc(CC(N)=O)cc1` (stereo not drawn) [atenolol], the “change in aortic-root z scores over time with younger age of initiation” value [1] is given as “greater decrease”.

For `CCOC(=O)[C@H](CCc1ccccc1)N[C@@H](C)C(=O)N1CCC[C@H]1C(=O)O` [enalapril], the “survival after 12 weeks versus PBS” value (FBN1 mgR/mgR mice; female mgR mice, p=0.094) was “no significant difference”, the “maximum ascending aortic diameter after treatment for 12 weeks” value (shortened to “maximum ascending aortic diameter”) (FBN1 mgR/mgR mice; [5]) was 1.89+/−0.31 and the “survival after 12 weeks versus PBS” value (FBN1 mgR/mgR mice; male mgR mice, p=0.224) was “no significant difference”. The “maximum ascending aortic diameter” value (FBN1 mgR/mgR mice; [6]) was 2.04+/−0.27 mm.

In the case of `CCCCC1=NC2(CCCC2)C(=O)N1Cc1ccc(-c2ccccc2-c2nnn[nH]2)cc1` [irbesartan], the aortic root expansion [2] is given as “significantly attenuated”.

For `CCCCc1nc(Cl)c(CO)n1Cc1ccc(-c2ccccc2-c2nn[nH]n2)cc1` [losartan], the “efficacy when administered after significant thoracic aortic dilation has already occurred” value (FBN1 mgR/mgR mice; FBN1^mgR/mgR mice) was “not effective”, the “survival after 12 weeks versus PBS” value (FBN1 mgR/mgR mice; female mgR mice, p=0.094) was “no significant difference” and the “maximum ascending aortic diameter” value (FBN1 mgR/mgR mice; [5]) was 1.98+/−0.17. The “survival after 12 weeks versus PBS” value (FBN1 mgR/mgR mice; male mgR mice, p=0.224) was “no significant difference”, the “maximum ascending aortic diameter” value (FBN1 mgR/mgR mice; [6]) was 2.42+/−0.28 mm and the number of deaths [3] was 0. For the same molecule, the “change in aortic-root z scores over time with younger age of initiation” value [1] was “greater decrease”, the “mortality due to aortic rupture compared to mgR controls” value ([4]; male mgR mice, losartan in drinking water from 24 days of age, p<0.05) was “protected from mortality” and the “mice dying by aortic rupture within 4 weeks of losartan withdrawal” value ([4]; withdrawal at 52 days of age) was 6/10. For the same molecule, the “survival benefit in female mice” value (Fbn1^mgR/mgR mice; female Fbn1^mgR/mgR mice, survival not different from wild type females) was “not possible to detect a survival benefit”, the “survival compared to Fbn1^mgR/mgR males receiving no drug” value (Fbn1^mgR/mgR mice; males, losartan 0.6 g/L drinking water from P24, p<0.001, log-rank) was “increased” and the “survival compared to wild type male mice” value (Fbn1^mgR/mgR mice; males, losartan from P24, p=0.138) was “not different”. The “survival compared to wild type mice” value (Fbn1^mgR/mgR mice; males, losartan from P50, p=0.002) was “decreased”, the “survival compared to Fbn1^mgR/mgR mice receiving no drug, survival analysis starting at P50” value (Fbn1^mgR/mgR mice; males, losartan from P50) was “increased survival” and the “survival compared to Fbn1^mgR/mgR mice receiving no drug, survival analysis starting at P50” value (Fbn1^mgR/mgR mice; males, losartan from P50, listed as Losartan) was “improves survival”. The “survival compared to Fbn1^mgR/mgR males receiving no drug” value (Fbn1^mgR/mgR mice; males, losartan from P50, p=0.194) was “not different”, the “aortic root expansion in Fbn1^C1041G/+ mice” value (mouse models of TAA; literature ref 9) was “decrease aortic root expansion” and the “aortic expansion in other mouse models of TAA” value (mouse models of TAA; literature refs 6-11) was “reduces aortic expansion”.
